Measurements reported in PubChem BioAssay (NCI).
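1) Cells in 96-well plates. 2) Compound, 48 h, 5 concentrations. 3) Linear interpolation between surrounding doses. 4) Unreached endpoint = highest concentration. TGI: concentration producing complete growth inhibition.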

Columns and labels:
Assay in all cases: NCI anticancer screen, dose series, 48 h
ACHN renal = test system: ACHN renal
OVCAR-8 ovarian = test system: OVCAR-8 ovarian
SNB-78 CNS = test system: SNB-78 CNS
SN12C renal = test system: SN12C renal
DMS 114 small cell lung = test system: DMS 114 small cell lung
RXF 393 renal = test system: RXF 393 renal
UACC-257 melanoma = test system: UACC-257 melanoma
786-0 renal = test system: 786-0 renal
SNB-75 CNS = test system: SNB-75 CNS
MALME-3M melanoma = test system: MALME-3M melanoma
SK-MEL-28 melanoma = test system: SK-MEL-28 melanoma
SK-MEL-5 melanoma = test system: SK-MEL-5 melanoma
OVCAR-4 ovarian = test system: OVCAR-4 ovarian
HCC-2998 colon = test system: HCC-2998 colon
SF-268 CNS = test system: SF-268 CNS
OVCAR-3 ovarian = test system: OVCAR-3 ovarian
A498 renal = test system: A498 renal
HT29 colon = test system: HT29 colon
COLO 205 colon = test system: COLO 205 colon
HL-60(TB) leukemia = test system: HL-60(TB) leukemia
SK-OV-3 ovarian = test system: SK-OV-3 ovarian
SK-MEL-2 melanoma = test system: SK-MEL-2 melanoma
UACC-62 melanoma = test system: UACC-62 melanoma
MOLT-4 leukemia = test system: MOLT-4 leukemia
HOP-62 NSCLC = test system: HOP-62 NSCLC
NCI-H23 lung = test system: NCI-H23 lung
TK-10 renal = test system: TK-10 renal
LOX IMVI melanoma = test system: LOX IMVI melanoma
EKVX NSCLC = test system: EKVX NSCLC
CCRF-CEM leukemia = test system: CCRF-CEM leukemia
U251 CNS = test system: U251 CNS
HCT-15 colon = test system: HCT-15 colon
SR leukemia = test system: SR leukemia
RPMI-8226 leukemia = test system: RPMI-8226 leukemia
SW-620 colon = test system: SW-620 colon
KM12 colon = test system: KM12 colon
K-562 leukemia = test system: K-562 leukemia
UO-31 renal = test system: UO-31 renal
NCI-H522 lung = test system: NCI-H522 lung
A549 NSCLC = test system: A549 NSCLC
M14 melanoma = test system: M14 melanoma
CAKI-1 renal = test system: CAKI-1 renal
KM20L2 colon = test system: KM20L2 colon
DMS 273 small cell lung = test system: DMS 273 small cell lung
SNB-19 CNS = test system: SNB-19 CNS
LXFL 529 NSCLC = test system: LXFL 529 NSCLC
HCT-116 colon = test system: HCT-116 colon
SF-295 CNS = test system: SF-295 CNS
SF-539 CNS = test system: SF-539 CNS
NCI-H460 lung = test system: NCI-H460 lung
IGROV1 ovarian = test system: IGROV1 ovarian
OVCAR-5 ovarian = test system: OVCAR-5 ovarian
M19-MEL melanoma = test system: M19-MEL melanoma
HOP-92 NSCLC = test system: HOP-92 NSCLC
NCI-H226 lung = test system: NCI-H226 lung

Structure (SMILES): c1ccc(C2=NOC3COc4ccccc4OCC23)cc1 (stereo not given)
- TGI (ACHN renal): > 100 µM
- TGI (OVCAR-8 ovarian): > 100 µM
- TGI (SNB-78 CNS): > 100 µM
- TGI (SN12C renal): > 100 µM
- TGI (DMS 114 small cell lung): > 100 µM
- TGI (RXF 393 renal): > 100 µM
- TGI (UACC-257 melanoma): > 100 µM
- TGI (786-0 renal): > 100 µM
- TGI (SNB-75 CNS): > 100 µM
- TGI (MALME-3M melanoma): > 100 µM
- TGI (SK-MEL-28 melanoma): > 100 µM
- TGI (SK-MEL-5 melanoma): > 100 µM
- TGI (OVCAR-4 ovarian): > 100 µM
- TGI (HCC-2998 colon): > 100 µM
- TGI (SF-268 CNS): > 100 µM
- TGI (OVCAR-3 ovarian): > 100 µM
- TGI (A498 renal): > 100 µM
- TGI (HT29 colon): > 100 µM
- TGI (COLO 205 colon): > 100 µM
- TGI (HL-60(TB) leukemia): > 100 µM
- TGI (SK-OV-3 ovarian): > 100 µM
- TGI (SK-MEL-2 melanoma): > 100 µM
- TGI (UACC-62 melanoma): > 100 µM
- TGI (MOLT-4 leukemia): > 100 µM
- TGI (HOP-62 NSCLC): > 100 µM
- TGI (NCI-H23 lung): > 100 µM
- TGI (TK-10 renal): > 100 µM
- TGI (LOX IMVI melanoma): > 100 µM
- TGI (EKVX NSCLC): > 100 µM
- TGI (CCRF-CEM leukemia): > 100 µM
- TGI (U251 CNS): > 100 µM
- TGI (HCT-15 colon): > 100 µM
- TGI (SR leukemia): > 100 µM
- TGI (RPMI-8226 leukemia): > 100 µM
- TGI (SW-620 colon): > 100 µM
- TGI (KM12 colon): > 100 µM
- TGI (K-562 leukemia): > 100 µM
- TGI (UO-31 renal): > 100 µM
- TGI (NCI-H522 lung): > 100 µM
- TGI (A549 NSCLC): > 100 µM
- TGI (M14 melanoma): > 100 µM
- TGI (CAKI-1 renal): > 100 µM
- TGI (KM20L2 colon): > 100 µM
- TGI (DMS 273 small cell lung): > 100 µM
- TGI (SNB-19 CNS): > 100 µM
- TGI (LXFL 529 NSCLC): > 100 µM
- TGI (HCT-116 colon): > 100 µM
- TGI (SF-295 CNS): > 100 µM
- TGI (SF-539 CNS): > 100 µM
- TGI (NCI-H460 lung): > 100 µM

Structure (SMILES): COc1ccc2c(c1)CC[C@@H]1C2CC[C@]2(C)C(=O)N(CCN3CCCC3)C(=O)CC12 (stereo not given in full)
- TGI (ACHN renal): > 100 µM
- TGI (SNB-78 CNS): > 100 µM
- TGI (DMS 114 small cell lung): 76.4 µM
- TGI (RXF 393 renal): 86.7 µM
- TGI (UACC-257 melanoma): 38.7 µM
- TGI (786-0 renal): 35.8 µM
- TGI (SNB-75 CNS): 87.1 µM
- TGI (MALME-3M melanoma): 31.5 µM
- TGI (SK-MEL-28 melanoma): 38.9 µM
- TGI (OVCAR-4 ovarian): > 100 µM
- TGI (SF-268 CNS): > 100 µM
- TGI (OVCAR-3 ovarian): > 100 µM
- TGI (A498 renal): > 100 µM
- TGI (HT29 colon): 34.8 µM
- TGI (COLO 205 colon): 37.6 µM
- TGI (HL-60(TB) leukemia): 45.2 µM
- TGI (IGROV1 ovarian): > 100 µM
- TGI (SK-OV-3 ovarian): > 100 µM
- TGI (SK-MEL-2 melanoma): 32.2 µM
- TGI (UACC-62 melanoma): 35.1 µM
- TGI (MOLT-4 leukemia): 57.7 µM
- TGI (OVCAR-5 ovarian): > 100 µM
- TGI (HOP-62 NSCLC): 66.6 µM
- TGI (NCI-H23 lung): > 100 µM
- TGI (U251 CNS): > 100 µM
- TGI (SR leukemia): > 100 µM
- TGI (RPMI-8226 leukemia): 34.4 µM
- TGI (M19-MEL melanoma): 35.7 µM
- TGI (KM12 colon): > 100 µM
- TGI (K-562 leukemia): 70.1 µM
- TGI (UO-31 renal): 49.9 µM
- TGI (NCI-H522 lung): 52.7 µM
- TGI (M14 melanoma): 31.1 µM
- TGI (KM20L2 colon): 55 µM
- TGI (SNB-19 CNS): > 100 µM
- TGI (LXFL 529 NSCLC): 89.6 µM
- TGI (HOP-92 NSCLC): 81.8 µM
- TGI (SF-295 CNS): 42.1 µM
- TGI (NCI-H460 lung): > 100 µM

Structure (SMILES): N#CC1Sc2ccccc2-n2cccc21 (stereo not given)
- TGI (SNB-78 CNS): > 100 µM
- TGI (NCI-H226 lung): 87.6 µM
- TGI (RXF 393 renal): 67.3 µM
- TGI (SK-MEL-28 melanoma): > 100 µM
- TGI (SF-268 CNS): 78.2 µM
- TGI (A498 renal): > 100 µM
- TGI (HT29 colon): > 100 µM
- TGI (HL-60(TB) leukemia): 61.6 µM
- TGI (IGROV1 ovarian): > 100 µM
- TGI (SK-OV-3 ovarian): > 100 µM
- TGI (UACC-62 melanoma): 99.2 µM
- TGI (MOLT-4 leukemia): > 100 µM
- TGI (OVCAR-5 ovarian): > 100 µM
- TGI (HOP-62 NSCLC): > 100 µM
- TGI (NCI-H23 lung): > 100 µM
- TGI (TK-10 renal): > 100 µM
- TGI (EKVX NSCLC): > 100 µM
- TGI (CCRF-CEM leukemia): > 100 µM
- TGI (U251 CNS): > 100 µM
- TGI (SR leukemia): > 100 µM
- TGI (M19-MEL melanoma): > 100 µM
- TGI (KM12 colon): > 100 µM
- TGI (K-562 leukemia): 95.5 µM
- TGI (UO-31 renal): 93.3 µM
- TGI (NCI-H522 lung): > 100 µM
- TGI (A549 NSCLC): > 100 µM
- TGI (M14 melanoma): > 100 µM
- TGI (DMS 273 small cell lung): > 100 µM
- TGI (SNB-19 CNS): > 100 µM
- TGI (HOP-92 NSCLC): > 100 µM
- TGI (NCI-H460 lung): > 100 µM
